We go through ten molecules from patent publication US20150011501A1, “PARTIALLY DEPOLYMERIZED GLYCOSAMINOGLYCAN SILVER AND GOLD SALTS” (priority 2012, published 2015).

The nature of data set [1]: Absorption test on cellulose paper. The class given is physicochemical. As to the method: A comparative test of the absorption of the depolymerized compounds of the invention and the non-depolymerized compounds was carried out. To do this, partially depolymerized silver chondroitin sulfate (example 1) and high molecular weight silver chondroitin sulfate (comparative example 8) were dissolved separately with water at the same concentration (10% by weight/volume). Once the products were completely dissolved it was noted that the viscosity of the product of example 1 was lower than that of the product of the comparative example 8. 10 mL of each product were applied on cellulose paper.

The nature of data set [2]: Acute oral toxicology test (OECD Guideline No. 420, fixed dose). The class given is in vivo. Details: median lethal oral dose (LD50): unit not given here. Here is the method: An acute oral toxicology test of partially depolymerized silver chondroitin sulfate (example 1) was carried out to assess the oral toxicity and identify the corresponding classification (GHS, Globally Harmonised Classification System for Chemical Substances and Mixtures). The study was conducted according to the OECD Guideline No. 420 (fixed dose).

A further data set concerns S. Aureus. Briefly: Test of antimicrobial activity (halo diameter on plate). In kind it is cell-based. Details: unit not given here. The note with it: chondroitin sulfate products 10% w/v, hyaluronic acid products 1.4% w/v in water. The text has this: (§1) The objective of the test was to verify the antimicrobial activity with the microorganisms E. Coli and S. Aureus. For this purpose, solutions in water of the following products were separately prepared: • Commercially available sodium chondroitin sulfate of marine origin having a molecular weight between 25,000 and 40,000 Daltons. Product described in European Pharmacopeia (01/2009:2064) (comparative example 10); • High molecular weight silver chondroitin sulfate (comparative example 8); • Partially depolymerized silver chondroitin sulfate (example 1); • High molecular weight silver hyaluronate (comparative example 9); • Partially depolymerized silver hyaluronate (example 2); • AgNO3 (comparative example 11); • Partially depolymerized gold chondroitin sulfate (example 3); • Partially depolymerized gold hyaluronate (example 4); and • Mixture of 1 g of commercially available sodium chondroitin sulfate of marine origin having a molecular weight between 25,000 and 40,000 Daltons and 0.1 g of AgNO3 (comparative example 12).
(§2) The products derived from chondroitin sulfate were dissolved at 10% (weight/volume). The products derived from hyaluronic acid were dissolved at 1.4% (weight/volume). For the rest of products water was added until complete dissolution.
(§3) Each of the products was applied, as well as a control (water), to a plate with S. Aureus and E. Coli. The products were incubated under standard conditions for S. Aureus and E. Coli. The results were expressed in areolar or halo diameter and were the following: for the comparative example 10 it was 0 in E. Coli and 0 in S. Aureus; for the comparative example 8 it was 7 in E. Coli and 8 in S. Aureus; for the example 1 it was 7 in E. Coli and 6 in S. Aureus; for the comparative example 9 it was 8 in E. Coli and 8 in S. Aureus; for the example 2 it was 7 in E. Coli and 6 in S. Aureus; for the comparative example 11 it was 8 in E. Coli and 6 in S. Aureus; for the example 3 it was 9 in E. Coli and 8 in S. Aureus; for the control it was 0 in E. Coli and 0 in S. Aureus; for the example 4 it was 4 in E. Coli and 6 in S. Aureus; and for the comparative example 12 it was 7 in E. Coli and 5 in S. Aureus.

The test system of a further data set is E. Coli. The description is as above. The class given is cell-based. Details: unit not given here. The note with it: chondroitin sulfate products 10% w/v, hyaluronic acid products 1.4% w/v in water.
From the text: as §1, §2, §3

Data set [3] is described as follows: Stability test (visual inspection of colour in the dark and under ambient light). The class given is physicochemical. The note with it: precipitated product. As to the method:
After this time, a visual inspection of the products was carried out and the products were protected in the dark again. After 12 hours, another visual inspection of the products was carried out. The products were then exposed to ambient light. After 5 hours, a visual inspection of the products was carried out.

A short description of data set [4]: Preliminary test of effectiveness in burns. The class given is in vivo. Particulars: for efficacy in skin surfaces with burns or wounds: overall conclusion. As to the method:
(§4) The aim of this test was to assess the toxicity (topical) and effectiveness in burns. The side effects that the different products could cause including irritation, inflammation and/or darkening were assessed by visual inspection and photographs. The products assessed were the following: • Commercially available sodium chondroitin sulfate of marine origin having a molecular weight between 25,000 and 40,000 Daltons. Product described in European Pharmacopeia (01/2009:2064) (comparative example 10); • Partially depolymerized silver chondroitin sulfate (example 1); • Partially depolymerized silver chondroitin sulfate dissolved/mixed in a moisturizing cream (example 1c); • Partially depolymerized silver hyaluronate (example 2); • AgNO3 (comparative example 11); and • Partially depolymerized gold chondroitin sulfate (example 3).
(§5) The products derived from chondroitin sulfate were dissolved in water at 10% (weight/volume). The products derived from hyaluronic acid were dissolved at 1.4% (weight/volume). For the silver nitrate water was added until complete dissolution. The product of example 1c was mixed with a moisturizing cream.
In the application of the product of the comparative example 11 irritation was observed both in the “upper area of the arm” and in the abdomen at 10 minutes and at 30 minutes. […] At this moment, the product of example 1 was applied to the burn of the abdomen. 2 daily applications of the product of example 1 were done to the burn during the next 3 days. […] At this moment, the product of example 2 was applied to the burn of the “upper area of the arm”. 3 daily applications of the product of example 2 were done to the burn.

Data set [5] in a line: Preliminary test of toxicology (topical): side effects by visual inspection. In kind it is in vivo. Here is the method: as §4, §5
All the products were applied in the “upper area of the arm” (upper biceps) and in the abdomen (area of the ribs). The products of examples 1, 2 and 3 were also applied in the “lower area of the arm”. The visual inspections were carried out with the following frequency after the application: 10 minutes, 30 minutes, 60 minutes, 8 h, 3 days, 4 days, 7 days and 9 days.
The treated areas were exposed to different types of light (solar, incandescent bulb, fluorescent) for 10 minutes. Darkening was not observed in any case. The abdomen was protected from the light after 10 minutes. The “upper area of the arm” was left under light exposure up to 8 hours. The “lower area of the arm” had continuous exposure to ambient light.

Data set [6] is described as follows: Viscosity test (dissolution time, appearance, displacement time). Particulars: 0.01 g in 0.5 mL water, tube inverted (180° rotation). In kind it is physicochemical. The text has this:
The objective of the test was to verify that the viscosity of the partially depolymerized products obtained is lower than the viscosity of the starting products (non-depolymerized). The products assessed were the following: • High molecular weight silver chondroitin sulfate (comparative example 8); • Partially depolymerized silver chondroitin sulfate (example 1); • High molecular weight silver hyaluronate (comparative example 9) and • Partially depolymerized silver hyaluronate (example 2).
The following parameters were assessed: dissolution time, appearance (visual method) and displacement time.
0.01 g of each product was dissolved separately in 0.5 mL of distilled water in test tubes of 11.5 cm of length and 1 cm of diameter. Once the products were completely dissolved, the position of the tubes was inverted to check the displacement time.

Where [7] appears, read: after 5 hours of exposure to ambient light.

A value given as a limit tells only on which side of the number the result lay.

As to “Partially Depolymerized Silver Chondroitin Sulfate [example 1]”, the “viscosity relative to comparative example 8” value in data set [1] (10% by weight/volume in water) was “lower”. In addition, the “absorption on cellulose paper relative to comparative example 8” value in data set [1] (10 mL of 10% w/v solution applied on cellulose paper) is listed as “absorbed more rapidly”. This molecule registered a GHS classification in data set [2] (Globally Harmonised Classification System) of 5. Moreover, the “median lethal oral dose (LD50)” value in data set [2] (OECD Guideline No. 420 fixed dose) was more than 2000. The results for the “areolar or halo diameter” value in the data set on S. Aureus and in the data set with E. Coli were 6 and 7, respectively. In addition, the “color (visual inspection)” value in data set [3] (after 1 hour in the dark), in data set [3] (setting [7]) and in data set [3] (after 12 hours in the dark) was “white” in each case. In data set [4], the “efficacy in skin surfaces with burns or wounds” value is on record as “produce an improvement”. Moreover, the “burn healing (visual)” value in data set [4] (silver nitrate burn of the abdomen, 2 daily applications from third day, observed after the fourth day) was “nearly full disappearance of the burn”. Further, the “side effects by visual inspection” value in data set [5] (topical, all areas applied, all inspections from 10 minutes to 9 days) was “no relevant behavior”. Moreover, in data set [5] (topical, overall conclusion, unlike silver nitrate), the “problems of darkening, irritation, itching or inflammation” value (shortened to “problems of darkening, irritation”) was “did not have problems of darkening, irritation, itching or inflammation”. Further, the displacement time in data set [6] was found to be 1 s.
As for “High Molecular Weight Silver Chondroitin Sulfate [comparative example 8]”, the figures for the “areolar or halo diameter” value in the data set with S. Aureus and in the data set with E. Coli were 8 and 7, respectively. Moreover, the figures for the “color (visual inspection)” value in data set [3] (after 1 hour in the dark), in data set [3] (setting [7]) and in data set [3] (after 12 hours in the dark) were “white”, “dark red” and “white”, respectively. In addition, the displacement time in data set [6] was determined as 30 s.
“High Molecular Weight Silver Hyaluronate [comparative example 9]”: the “areolar or halo diameter” value in the data set with S. Aureus and in the data set on E. Coli was 8 each time. This molecule also came in with a displacement time in data set [6] of 300 s.
For the molecule “Partially Depolymerized Gold Chondroitin Sulfate [example 3]”, the “areolar or halo diameter” value with S. Aureus is listed as 8. The “areolar or halo diameter” value in the data set with E. Coli turned out to be 9. Also, in data set [5] (in vivo), the “problems of darkening, irritation” value is recorded as “did not have problems of darkening, irritation, itching or inflammation” and the “side effects by visual inspection” value is “no relevant behavior”.
For the molecule “sodium chondroitin sulfate [comparative example 10]”, the “areolar or halo diameter” value in the data set with S. Aureus and in the data set with E. Coli was 0 in each case.
With “Partially Depolymerized Gold Hyaluronate [example 4]”, the results for the “areolar or halo diameter” value with S. Aureus and in the data set on E. Coli were 6 and 4, respectively.
Regarding “Partially Depolymerized Silver Chondroitin Sulfate (Without Bleaching Step) [comparative example 7]”, the “color (visual inspection)” value is on record as “white” in data set [3] (after 1 hour in the dark), “dark red” in data set [3] (setting [7]) and “white” in data set [3] (after 12 hours in the dark).
For the molecule “Partially Depolymerized Silver Hyaluronate [example 2]”, in the data set on S. Aureus, the “areolar or halo diameter” value was 6. The “areolar or halo diameter” value in the data set with E. Coli was found to be 7. Also, the “efficacy in skin surfaces with burns or wounds” value in data set [4] is “produce an improvement”. In addition, in data set [4] (silver nitrate burn of the upper area of the arm, 3 daily applications from seventh day, observed after the ninth day), the “burn healing (visual)” value is given as “almost completely disappeared”. Besides, in data set [5] (in vivo), the “problems of darkening, irritation” value was “did not have problems of darkening, irritation, itching or inflammation” and the “side effects by visual inspection” value was “no relevant behavior”. In data set [6], this molecule yielded a displacement time of 1 s.
As to `O=[N+]([O-])[O-].[Ag+]` [comparative example 11, AgNO3], the “areolar or halo diameter” value stood at 6 with S. Aureus and 8 in the data set on E. Coli. For the same molecule, the “side effects by visual inspection” value is “irritation, itching, burning and a halo or aureole” in data set [5] (topical, after 8 hours); “increase of the diameter of the aureole of the burn” in data set [5] (topical, after the third day); “irritation, itching and burning” in data set [5] (topical, parts where product was applied, after 60 minutes); “irritation” in data set [5] (topical, upper area of the arm and abdomen, at 10 minutes and at 30 minutes); “increase of the diameter of the aureole of the burn” in data set [5] (topical, upper area of the arm, after the fourth day); “diameter of the aureole of the burn increased” in data set [5] (topical, upper area of the arm, after the seventh day).
Regarding “Partially Depolymerized Ssilver Chondroitin Sulfate (Bleaching Agent: Sodium Metabisulfite) [comparative example 5]”, the “color (visual inspection)” value in data set [3] (after 1 hour in the dark) is reported as “reddish”; in data set [3] (setting [7]), “black”; in data set [3] (after 12 hours in the dark) it was “reddish to black”.
